Data from patent publication US6369212B1, “Cytochrome P450 gene highly expressed in the incompatible interaction” (Korea Kumbo Petrochemical Co., Ltd., priority 2000, dated 2002).

Tested on: PepCYP mRNA
Test: RNA gel blot analysis of PepCYP expression in pepper fruits drop-applied with ABA or JA
Set-up: species or system pepper (Capsicum annuum)
Protocol: Both ripe-red and unripe-mature-green fruits of pepper cv Nokkwang were grown and harvested under greenhouse conditions. For wound treatments, five healthy ripe and unripe fruits were deeply scratched with a knife and incubated at 100% relative humidity at 27° C. in the dark. Ten μl of ABA at 4 and 40 μM, or JA at 4 and 40 μM were drop-applied to both ripe and unripe sets of five fruits, respectively. After incubation under the conditions described above, the fruits were excised to 1 cm^2 at the drop-application site for the fungus, ABA or JA, and at the wounding site. The samples were then frozen in liquid nitrogen. Leaf, root, and stem samples were harvested from 3-week-old plants and handled as described above for fungal inoculation and wounding.
Total RNA (10 μg/lane) from each plant tissue used in this study was separated on 1.2% denaturing agarose gels in the presence of formaldehyde. RNA gel-blotting, hybridization and washing were conducted as described by the manufacturer of the positively charged nylon membrane employed (Hybond N^+; Amersham Pharmacia Biotech). Radiolabeled probes were prepared with [α-^32P]dCTP (Amersham Pharmacia Biotech) using a random primer-labeling kit (Boehringer, Mannheim, Germany).
Jasmonic acid (JA) is a plant hormone with roles in mechanical wounding responses (Creelman et al. 1992; Creelman and Mullet 1997). ABA is hypothesized to be a key component in wound-signaling cascade leading to the activation of a defense gene (Pena-Cortés et al. 1996; Wasternack and Partheir 1997). Thus, we further examined whether the wound-inducible PepCYP expression is inducible by ABA or JA treatments. RNA gel blot analysis was performed with total RNAs prepared from the application sites of both ripe and unripe fruits drop-applied with ABA or JA for 24 h.

| SMILES | expression of PepCYP (both ripe and unripe fruits, 4 and 40 μM drop-applied, 24 h) | accumulation of PepCYP mRNA (ripe fruit, 40 μM drop-applied, 24 h) | induction of PepCYP expression (unripe fruit, 100, 400 and 1000 μM (data not shown)) |
| --- | --- | --- | --- |
| CC1=CC(=O)CC(C)(C)[C@@]1(O)/C=C/C(C)=C\C(=O)O [ABA, abscisic acid] | did not affect |  |  |
| CC/C=C\C[C@H]1C(=O)CC[C@@H]1CC(=O)O [JA, Jasmonic acid] |  | highly accumulated | No induction |
